From ChEMBL document CHEMBL1201862, “PubChem BioAssay data set” (2004)
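The compound was tested at five concentrations on cells cultured in 96-well plates, with a 48-hour exposure period. GI50: concentration for 50% inhibition of growth.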 Activity calls are given as the source filed them. Rule as the data show it: active = GI50 up to about 1.1 µM and inactive = higher.

Columns and labels:
Assay in all cases: growth of human tumour cells (NCI), 48 h
HCT-15 = tested on: HCT-15
RXF 393 = tested on: RXF 393
A549 = tested on: A549
CCRF-CEM = tested on: CCRF-CEM
SNB-75 = tested on: SNB-75
RPMI-8226 = tested on: RPMI-8226
CAKI-1 = tested on: CAKI-1
NCI-H522 = tested on: NCI-H522
HCC 2998 = tested on: HCC 2998
SN12C = tested on: SN12C
LOX IMVI = tested on: LOX IMVI
MOLT-4 = tested on: MOLT-4
COLO 205 = tested on: COLO 205
M14 = tested on: M14
MDA-MB-231 = tested on: MDA-MB-231
OVCAR-4 = tested on: OVCAR-4
SW-620 = tested on: SW-620
KM12 = tested on: KM12
HCT-116 = tested on: HCT-116
IGROV-1 = tested on: IGROV-1
HT-29 = tested on: HT-29
SK-MEL-5 = tested on: SK-MEL-5
UACC-62 = tested on: UACC-62
SF-295 = tested on: SF-295
UACC-257 = tested on: UACC-257
DU-145 = tested on: DU-145
U-251 = tested on: U-251
HL-60 = tested on: HL-60
SR = tested on: SR
SK-OV-3 = tested on: SK-OV-3
UO-31 = tested on: UO-31
T47D = tested on: T47D
NCI/ADR-RES = tested on: NCI/ADR-RES
SF-268 = tested on: SF-268
HOP-62 = tested on: HOP-62
ACHN = tested on: ACHN
NCI-H226 = tested on: NCI-H226
Hs-578T = tested on: Hs-578T
NCI-H460 = tested on: NCI-H460
SK-MEL-28 = tested on: SK-MEL-28
786-0 = tested on: 786-0
MDA-N = tested on: MDA-N
HOP-92 = tested on: HOP-92
MDA-MB-435 = tested on: MDA-MB-435
MCF7 = tested on: MCF7
SF-539 = tested on: SF-539
OVCAR-5 = tested on: OVCAR-5
K562 = tested on: K562
NCI-H23 = tested on: NCI-H23
SK-MEL-2 = tested on: SK-MEL-2
PC-3 = tested on: PC-3
OVCAR-8 = tested on: OVCAR-8
SNB-19 = tested on: SNB-19
OVCAR-3 = tested on: OVCAR-3
EKVX = tested on: EKVX
Malme-3M = tested on: Malme-3M

Measured: GI50

C=C1C(=O)O[C@@H]2C=C(C)C3=CC(=O)[C@](C)(C[C@H](OC(=O)/C(C)=C\C)[C@@H]12)O3
0.328 µM: HCT-15
active: RXF 393 0.29 µM | CCRF-CEM 0.209 µM | RPMI-8226 0.2 µM | CAKI-1 0.509 µM | NCI-H522 0.144 µM | LOX IMVI 0.299 µM | MOLT-4 0.273 µM | COLO 205 0.51 µM | M14 0.644 µM | MDA-MB-231 0.759 µM | SW-620 0.306 µM | HCT-116 0.282 µM | IGROV-1 1.03 µM | HT-29 0.647 µM | SK-MEL-5 0.542 µM | UACC-62 0.508 µM | HL-60 0.157 µM | SR 0.201 µM | UO-31 1.09 µM | T47D 0.916 µM | NCI/ADR-RES 0.67 µM | ACHN 0.489 µM | 786-0 0.374 µM | MDA-N 0.311 µM | HOP-92 0.671 µM | MDA-MB-435 0.813 µM | MCF7 0.41 µM | K562 0.282 µM | OVCAR-8 0.51 µM
inactive: A549 1.73 µM | SNB-75 13.5 µM | HCC 2998 1.51 µM | SN12C 1.92 µM | OVCAR-4 4.88 µM | KM12 1.3 µM | SF-295 2.42 µM | UACC-257 2.14 µM | DU-145 4.1 µM | U-251 1.85 µM | SK-OV-3 4.05 µM | SF-268 3.12 µM | HOP-62 3.14 µM | NCI-H226 2.28 µM | Hs-578T 2.85 µM | NCI-H460 2.18 µM | SK-MEL-28 1.24 µM | SF-539 2.43 µM | OVCAR-5 1.97 µM | NCI-H23 1.22 µM | SK-MEL-2 1.7 µM | PC-3 1.51 µM

COc1c(C(=O)NCCN(CCNC(=O)c2cccc(-c3cccc(C(=O)N(C)C)c3OC)c2OC)CCNC(=O)c2cccc(-c3cccc(C(=O)N(C)C)c3OC)c2OC)cccc1-c1cccc(C(=O)N(C)C)c1OC
inactive: RXF 393 26.5 µM | A549 > 100 µM | CCRF-CEM 31.3 µM | SNB-75 28.7 µM | RPMI-8226 25.9 µM | CAKI-1 > 100 µM | NCI-H522 21.6 µM | HCC 2998 17.2 µM | SN12C 24.4 µM | LOX IMVI 18.1 µM | MOLT-4 24.7 µM | SNB-19 56.5 µM | COLO 205 22.1 µM | M14 > 100 µM | OVCAR-3 16.1 µM | MDA-MB-231 32.4 µM | OVCAR-4 28.3 µM | SW-620 38.1 µM | KM12 17.3 µM | EKVX 47.6 µM | HCT-116 20 µM | IGROV-1 36.1 µM | HT-29 33.1 µM | SK-MEL-5 30.5 µM | UACC-62 31.6 µM | SF-295 > 100 µM | UACC-257 29 µM | DU-145 32.7 µM | U-251 34 µM | HL-60 39.4 µM | SR 26.6 µM | SK-OV-3 48.1 µM | UO-31 > 100 µM | T47D 15.1 µM | NCI/ADR-RES > 100 µM | SF-268 15.3 µM | HOP-62 97.7 µM | ACHN > 100 µM | NCI-H226 17.8 µM | Hs-578T 32.4 µM | NCI-H460 94.4 µM | SK-MEL-28 19.5 µM | 786-0 57.3 µM | MDA-N 17.8 µM | HOP-92 14.4 µM | MDA-MB-435 20.9 µM | MCF7 18.8 µM | SF-539 18.1 µM | OVCAR-5 34.2 µM | K562 23.8 µM | NCI-H23 43.2 µM | PC-3 38.4 µM | Malme-3M 18.7 µM | OVCAR-8 > 100 µM
> 100 µM: HCT-15
